In general, Emax refers to the maximal effect, on the per cent scale that the assay sets. Broadly, the EC50 is the concentration that produces a half-maximal response.

We go through 5 molecules from patent US20250304644A1, “PEPTIDES TRIPLE AGONISTS OF GIP, GLP-1 AND GLP-2” (BAINAN BIOTECH APS, priority 2021, published 2025).

The structures appear in SMILES notation. Where a SMILES comes first, the peptide text is derived from it. [ ]: non-standard residue; d: D form. The star is where a group is joined. Decanoyl = CCCCCCCCCC(=O)*; Aib = CC(C)(N)C(=O)O

What all share (format): cell-based
For one assay, the target named is T1, human GLP-1R (Homo sapiens, UniProt P43220).
T1 construct: host or cells: COS-7
T1 sequence (P43220 24-463): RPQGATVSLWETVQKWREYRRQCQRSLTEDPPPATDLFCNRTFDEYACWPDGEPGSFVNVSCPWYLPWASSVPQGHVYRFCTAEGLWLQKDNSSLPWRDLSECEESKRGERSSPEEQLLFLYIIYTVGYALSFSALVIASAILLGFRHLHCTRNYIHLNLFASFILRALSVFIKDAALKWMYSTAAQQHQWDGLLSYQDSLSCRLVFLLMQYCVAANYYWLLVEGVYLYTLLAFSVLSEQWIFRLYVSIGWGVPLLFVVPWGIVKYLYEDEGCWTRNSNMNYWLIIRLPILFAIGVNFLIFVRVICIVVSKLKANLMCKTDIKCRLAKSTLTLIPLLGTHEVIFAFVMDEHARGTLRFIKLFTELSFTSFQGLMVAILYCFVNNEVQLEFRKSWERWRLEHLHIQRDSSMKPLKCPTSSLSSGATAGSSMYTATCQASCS
Kind of assay: cAMP assay (HitHunter) in transiently transfected COS-7 cells expressing human GLP-1R. Particulars: for Emax: COS-7, normalized to highest concentration of the endogenous ligand, read-out: Efficacy GLP-1R (Emax); for EC50: cAMP, COS-7 cells, human GLP-1R, read-out: EC50 (nM) GLP-1R. The protocol:
(§1) The next day the assay was initiated by washing with HEPES buffered saline (HBS) and followed by an incubation step with assay buffer (HBS added 1 mM isobutyl-1-methylxanthine (IBMX)) for 30 min at 37° C. The ligands were then added and incubated for an additional 30 min at 37° C. After ligand incubation, the HitHunter® CAMP assay (Eurofins DiscoverX, Fremont, […] USA) was carried out according to the manufacturer's instructions. […] The potencies (EC50 values) were determined by nonlinear regression using GraphPad Prism 9 (San Diego, California, USA). Sigmoid curves were fitted logistically. The efficacies (Emax values) were determined by normalization to the highest concentration applied of the endogenous ligand for each receptor.
Background: cAMP levels reflect the balance of adenylyl cyclase and phosphodiesterase activity.

A further assay addresses T2, human GLP-2R (Homo sapiens, UniProt O95838).
T2 construct: host or cells: COS-7
T2 sequence (O95838 1-553): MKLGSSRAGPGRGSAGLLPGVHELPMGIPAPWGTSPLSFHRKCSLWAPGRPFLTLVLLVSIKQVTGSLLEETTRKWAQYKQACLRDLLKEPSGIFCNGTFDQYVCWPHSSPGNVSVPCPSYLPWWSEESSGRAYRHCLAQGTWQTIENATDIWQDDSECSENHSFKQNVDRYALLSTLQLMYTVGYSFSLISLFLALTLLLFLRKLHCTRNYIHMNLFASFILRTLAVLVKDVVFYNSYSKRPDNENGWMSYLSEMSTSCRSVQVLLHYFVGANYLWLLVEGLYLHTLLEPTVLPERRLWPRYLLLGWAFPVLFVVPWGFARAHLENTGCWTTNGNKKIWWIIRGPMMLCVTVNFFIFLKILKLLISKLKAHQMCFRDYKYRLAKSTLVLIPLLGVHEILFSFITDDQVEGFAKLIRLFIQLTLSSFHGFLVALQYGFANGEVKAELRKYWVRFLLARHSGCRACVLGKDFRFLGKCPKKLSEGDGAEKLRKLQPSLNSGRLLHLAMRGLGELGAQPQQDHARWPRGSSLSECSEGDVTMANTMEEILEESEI
Description: cAMP assay (HitHunter) in transiently transfected COS-7 cells expressing human GLP-2R. Particulars: COS-7; normalized to highest concentration of the endogenous ligand; read-out: Efficacy GLP-2R (Emax). The method, then:
as §1

The target of another assay is T3, human GIPR (Homo sapiens, UniProt P48546).
T3 construct: host or cells: COS-7
T3 sequence (P48546 22-466): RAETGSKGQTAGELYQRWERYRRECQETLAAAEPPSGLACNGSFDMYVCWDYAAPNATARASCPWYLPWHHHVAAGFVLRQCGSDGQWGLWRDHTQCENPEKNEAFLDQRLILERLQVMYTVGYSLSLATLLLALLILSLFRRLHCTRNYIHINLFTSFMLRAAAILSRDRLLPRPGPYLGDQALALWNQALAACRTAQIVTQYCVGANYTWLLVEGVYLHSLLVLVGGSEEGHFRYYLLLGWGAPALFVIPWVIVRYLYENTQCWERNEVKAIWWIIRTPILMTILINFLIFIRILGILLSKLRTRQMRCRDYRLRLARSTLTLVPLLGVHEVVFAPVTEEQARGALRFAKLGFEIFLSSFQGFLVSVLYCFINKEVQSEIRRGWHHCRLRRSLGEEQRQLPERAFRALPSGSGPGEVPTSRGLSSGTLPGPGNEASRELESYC
Description: cAMP assay (HitHunter) in transiently transfected COS-7 cells expressing human GIPR. To be noted: for Emax: COS-7, normalized to highest concentration of the endogenous ligand, read-out: Efficacy GIPR (Emax); for EC50: cAMP, COS-7 cells, human GIPR. The method, then:
as §1

Regarding `CCCCCCCCCC(=O)NCCCC[C@H](NC(=O)[C@@H](NC(=O)[C@@H](NC(=O)[C@H](CCCCN)NC(=O)[C@@H](NC(=O)[C@H](CCC(N)=O)NC(=O)[C@@H](NC(=O)[C@H](CC(C)C)NC(=O)[C@H](Cc1c[nH]c2ccccc12)NC(=O)[C@H](CC(N)=O)NC(=O)[C@@H](NC(=O)[C@H](Cc1ccccc1)NC(=O)[C@H](CC(=O)O)NC(=O)[C@H](CCCNC(=N)N)NC(=O)[C@H](C)NC(=O)[C@H](C)NC(=O)[C@H](CC(C)C)NC(=O)[C@H](CC(N)=O)NC(=O)[C@H](CC(=O)O)NC(=O)[C@H](CC(C)C)NC(=O)[C@@H](NC(=O)[C@@H](NC(=O)[C@H](CO)NC(=O)[C@H](Cc1ccc(O)cc1)NC(=O)[C@H](CC(=O)O)NC(=O)[C@H](CO)NC(=O)[C@@H](NC(=O)[C@H](Cc1ccccc1)NC(=O)[C@@H](NC(=O)CNC(=O)[C@H](CC(=O)O)NC(=O)C(C)(C)NC(=O)[C@@H](N)Cc1c[nH]cn1)[C@@H](C)O)[C@@H](C)CC)[C@@H](C)O)[C@@H](C)CC)[C@@H](C)CC)[C@@H](C)CC)[C@@H](C)O)[C@@H](C)CC)[C@@H](C)O)C(N)=O` (single isomer, unassigned) [Compound 6], the results for the Emax on human GLP-1R, at human GLP-2R and on human GIPR were 96%, 99% and 97%, respectively.
Turning to `CCCCCCCCCC(=O)NCCCC[C@H](NC(=O)[C@@H](NC(=O)[C@@H](NC(=O)[C@H](CCCCN)NC(=O)[C@@H](NC(=O)[C@H](CCC(N)=O)NC(=O)[C@@H](NC(=O)[C@H](CC(C)C)NC(=O)[C@H](Cc1c[nH]c2ccccc12)NC(=O)[C@H](CC(N)=O)NC(=O)[C@@H](NC(=O)[C@H](Cc1ccccc1)NC(=O)[C@H](CC(=O)O)NC(=O)[C@H](CCCNC(=N)N)NC(=O)[C@H](C)NC(=O)[C@H](C)NC(=O)[C@H](CC(C)C)NC(=O)[C@H](CC(N)=O)NC(=O)[C@H](CC(=O)O)NC(=O)[C@H](CC(C)C)NC(=O)[C@@H](NC(=O)[C@@H](NC(=O)[C@H](C)NC(=O)[C@H](Cc1ccc(O)cc1)NC(=O)[C@H](CC(=O)O)NC(=O)[C@H](CO)NC(=O)[C@@H](NC(=O)[C@H](Cc1ccccc1)NC(=O)[C@@H](NC(=O)CNC(=O)[C@H](CC(=O)O)NC(=O)C(C)(C)NC(=O)[C@@H](N)Cc1c[nH]cn1)[C@@H](C)O)[C@@H](C)CC)[C@@H](C)O)[C@@H](C)CC)[C@@H](C)CC)[C@@H](C)CC)[C@@H](C)O)[C@@H](C)CC)[C@@H](C)O)C(=O)O` [Compound 3] (H-H[Aib]DGTFISDYATILDNLAARDFINWLIQTKITK(Decanoyl)-OH; N-terminus assumed), the Emax on human GLP-1R was determined as 94%; at human GLP-2R, 101%; at human GIPR it was 80%. The EC50 at human GLP-1R was determined as 1.78 nM; on human GIPR it was 0.631 nM.
With `CCCCCCCCCC(=O)NCCCC[C@H](NC(=O)[C@@H](NC(=O)[C@@H](NC(=O)[C@H](CCCCN)NC(=O)[C@@H](NC(=O)[C@H](CCC(N)=O)NC(=O)[C@@H](NC(=O)[C@H](CC(C)C)NC(=O)[C@H](Cc1c[nH]c2ccccc12)NC(=O)[C@H](CC(N)=O)NC(=O)[C@@H](NC(=O)[C@H](Cc1ccccc1)NC(=O)[C@H](CC(=O)O)NC(=O)[C@H](CCCNC(=N)N)NC(=O)[C@H](C)NC(=O)[C@H](C)NC(=O)[C@H](CC(C)C)NC(=O)[C@H](CC(C)C)NC(=O)[C@H](CC(=O)O)NC(=O)[C@H](CC(C)C)NC(=O)[C@@H](NC(=O)[C@@H](NC(=O)[C@H](CO)NC(=O)[C@H](Cc1ccc(O)cc1)NC(=O)[C@H](CC(=O)O)NC(=O)[C@H](CO)NC(=O)[C@@H](NC(=O)[C@H](Cc1ccccc1)NC(=O)[C@@H](NC(=O)CNC(=O)[C@H](CC(=O)O)NC(=O)C(C)(C)NC(=O)[C@@H](N)Cc1c[nH]cn1)[C@@H](C)O)[C@@H](C)CC)[C@@H](C)O)[C@@H](C)CC)[C@@H](C)CC)[C@@H](C)CC)[C@@H](C)O)[C@@H](C)CC)[C@@H](C)O)C(N)=O` [Compound 4] (H-H[Aib]DGTFISDYSTILDLLAARDFINWLIQTKITK(Decanoyl)-NH2), the Emax at human GLP-1R came out at 82%; at human GLP-2R it was 92%; on human GIPR, 102%. Further, the results for the EC50 at human GLP-1R and at human GIPR were 25.1 nM and 1.12 nM, respectively.
For `CCCCCCCCCC(=O)NCCCC[C@H](NC(=O)[C@@H](NC(=O)[C@@H](NC(=O)[C@H](CCCCN)NC(=O)[C@@H](NC(=O)[C@H](CCC(N)=O)NC(=O)[C@@H](NC(=O)[C@H](CC(C)C)NC(=O)[C@H](Cc1c[nH]c2ccccc12)NC(=O)[C@H](CC(N)=O)NC(=O)[C@@H](NC(=O)[C@H](Cc1ccccc1)NC(=O)[C@H](CCC(=O)O)NC(=O)[C@H](CCCNC(=N)N)NC(=O)[C@H](C)NC(=O)[C@H](C)NC(=O)[C@H](CC(C)C)NC(=O)[C@H](CC(N)=O)NC(=O)[C@H](CC(=O)O)NC(=O)[C@H](CC(C)C)NC(=O)[C@@H](NC(=O)[C@@H](NC(=O)[C@H](CO)NC(=O)[C@H](Cc1ccc(O)cc1)NC(=O)[C@H](CC(=O)O)NC(=O)[C@H](CO)NC(=O)[C@@H](NC(=O)[C@H](Cc1ccccc1)NC(=O)[C@@H](NC(=O)CNC(=O)[C@H](CC(=O)O)NC(=O)C(C)(C)NC(=O)[C@@H](N)Cc1c[nH]cn1)[C@@H](C)O)[C@@H](C)CC)[C@@H](C)O)[C@@H](C)CC)[C@@H](C)CC)[C@@H](C)CC)[C@@H](C)O)[C@@H](C)CC)[C@@H](C)O)C(N)=O` [Compound 8] (H-H[Aib]DGTFISDYSTILDNLAAREFINWLIQTKITK(Decanoyl)-NH2; N-terminus assumed), the Emax at human GLP-1R was 98%. Also, at human GIPR, the Emax is 99% and the EC50 was 1.12 nM.
As to `CCCCCCCCCC(=O)NCCCC[C@H](NC(=O)[C@@H](NC(=O)[C@@H](NC(=O)[C@H](CCCCN)NC(=O)[C@@H](NC(=O)[C@H](CCC(N)=O)NC(=O)[C@@H](NC(=O)[C@H](CC(C)C)NC(=O)[C@H](Cc1c[nH]c2ccccc12)NC(=O)[C@H](CC(N)=O)NC(=O)[C@@H](NC(=O)[C@H](Cc1ccccc1)NC(=O)[C@H](CC(=O)O)NC(=O)[C@H](CCCNC(=N)N)NC(=O)[C@H](C)NC(=O)[C@H](C)NC(=O)[C@@H](NC(=O)[C@H](CC(N)=O)NC(=O)[C@H](CC(=O)O)NC(=O)[C@H](CC(C)C)NC(=O)[C@@H](NC(=O)[C@@H](NC(=O)[C@H](CO)NC(=O)[C@H](Cc1ccc(O)cc1)NC(=O)[C@H](CC(=O)O)NC(=O)[C@H](CO)NC(=O)[C@@H](NC(=O)[C@H](Cc1ccccc1)NC(=O)[C@@H](NC(=O)CNC(=O)[C@H](CC(=O)O)NC(=O)C(C)(C)NC(=O)[C@@H](N)Cc1c[nH]cn1)[C@@H](C)O)[C@@H](C)CC)[C@@H](C)O)[C@@H](C)CC)[C@@H](C)CC)[C@@H](C)CC)[C@@H](C)CC)[C@@H](C)O)[C@@H](C)CC)[C@@H](C)O)C(N)=O` [Compound 15] (H-H[Aib]DGTFISDYSTILDNIAARDFINWLIQTKITK(Decanoyl)-NH2; N-terminus assumed), the maximal response (Emax) on human GLP-1R was 90%; at human GIPR, 98%. This molecule came in with an EC50 at human GIPR of 0.794 nM.
